Results published in the supplement of paper PMC10307832.

Key:
Test in all cases: relative viability (nuclei count vs DMSO), 5 days (fraction); higher = more cells survive
[1] = tested on: NCI-H1734
Procedure, shortened: (§1)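 For relative viability, nuclei counts in treated wells were divided by those in vehicle wells. Lung cancer cell lines had been pin-tool dosed in 1536-well plates the day after seeding and cultured for 5 days, then fixed and stained in one step (final 0.05% Triton X-100, 1% formaldehyde, 1 ug/ml Hoechst) and imaged at 4×. Doses were one drug alone or a fixed anchor-drug dose plus five library-drug doses (not always all listed) in √10 steps, and values are duplicate-plate medians.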

[2] = tested on: IA-LM
Procedure, shortened: as §1

[3] = tested on: NCI-H2009
Procedure, shortened: as §1

[4] = tested on: LK-2
Procedure, shortened: as §1

[5] = tested on: NCI-H1650
Procedure, shortened: as §1

[6] = tested on: NCI-H1648
Procedure, shortened: as §1

[7] = tested on: A-427
Procedure, shortened: as §1

[8] = tested on: UMC-11
Procedure, shortened: as §1

[9] = tested on: CAL-12T
Procedure, shortened: as §1

[10] = tested on: NCI-H1703
Procedure, shortened: as §1

`COc1cc2nccc(Oc3ccc(NC(=O)Nc4cc(C)on4)c(Cl)c3)c2cc1OC` [Tivozanib] + O=C(CCCCCCC(=O)Nc1ccccc1)NO [Vorinostat] (partner 1 µM) gave a relative viability ([1]; first compound 0.005 µM) of 0.685, a relative viability ([1]; first compound 0.01581 µM) of 0.79 and a relative viability ([1]; first compound 0.05 µM) of 0.813. For the same compound, the relative viability ([1]; first compound 0.1581 µM) was 0.578, the relative viability ([1]; first compound 0.5 µM) was 0.57 and the relative viability ([2]; first compound 0.005 µM) was 0.93. It also gave a relative viability ([2]; first compound 0.01581 µM) of 0.981, a relative viability ([2]; first compound 0.05 µM) of 0.872 and a relative viability ([2]; first compound 0.5 µM) of 0.836. For the same compound, the relative viability ([3]; first compound 0.005 µM) was 0.623, the relative viability ([3]; first compound 0.01581 µM) was 0.785 and the relative viability ([3]; first compound 0.05 µM) was 0.741. For the same compound, the relative viability ([3]; first compound 0.1581 µM) was 0.738, the relative viability ([3]; first compound 0.5 µM) was 0.621 and the relative viability ([4]; first compound 0.005 µM) was 0.317. For the same compound, the relative viability ([4]; first compound 0.01581 µM) was 0.352, the relative viability ([4]; first compound 0.05 µM) was 0.33 and the relative viability ([4]; first compound 0.1581 µM) was 0.185. The relative viability ([4]; first compound 0.5 µM) was 0.186, the relative viability ([5]; first compound 0.005 µM) was 0.638 and the relative viability ([5]; first compound 0.01581 µM) was 0.529. For the same compound, the relative viability ([5]; first compound 0.05 µM) was 0.712, the relative viability ([5]; first compound 0.1581 µM) was 0.606 and the relative viability ([5]; first compound 0.5 µM) was 0.545. It also gave a relative viability ([6]; first compound 0.005 µM) of 0.453, a relative viability ([6]; first compound 0.01581 µM) of 0.706 and a relative viability ([6]; first compound 0.05 µM) of 0.804. For the same compound, the relative viability ([6]; first compound 0.1581 µM) was 0.796, the relative viability ([6]; first compound 0.5 µM) was 0.423 and the relative viability ([7]; first compound 0.005 µM) was 0.741. For the same compound, the relative viability ([7]; first compound 0.01581 µM) was 0.888, the relative viability ([7]; first compound 0.05 µM) was 0.824 and the relative viability ([7]; first compound 0.1581 µM) was 0.857. For the same compound, the relative viability ([7]; first compound 0.5 µM) was 0.812, the relative viability ([8]; first compound 0.005 µM) was 0.404 and the relative viability ([8]; first compound 0.01581 µM) was 0.36. The relative viability ([8]; first compound 0.05 µM) was 0.349, the relative viability ([8]; first compound 0.1581 µM) was 0.328 and the relative viability ([8]; first compound 0.5 µM) was 0.329. It also gave a relative viability ([9]; first compound 0.005 µM) of 0.842, a relative viability ([9]; first compound 0.01581 µM) of 0.744 and a relative viability ([9]; first compound 0.05 µM) of 0.891. It also gave a relative viability ([9]; first compound 0.1581 µM) of 0.539 and a relative viability ([9]; first compound 0.5 µM) of 0.473.
In the case of `Nc1ccn([C@@H]2O[C@H](CO)[C@@H](O)[C@@H]2O)c(=O)n1` [Cytarabine] + NC(=O)Nc1cc(-c2cccc(F)c2)sc1C(=O)N[C@H]1CCCNC1 [AZD7762] (partner 0.2 µM), the relative viability ([1]; first compound 0.005 µM) is reported as 0.258, the relative viability ([1]; first compound 0.01581 µM) is reported as 0.172 and the relative viability ([1]; first compound 0.05 µM) is reported as 0.159. It also gave a relative viability ([1]; first compound 0.1581 µM) of 0.0997, a relative viability ([1]; first compound 0.5 µM) of 0.102 and a relative viability ([4]; first compound 0.005 µM) of 0.3. For the same compound, the relative viability ([4]; first compound 0.01581 µM) was 0.13, the relative viability ([4]; first compound 0.05 µM) was 0.0997 and the relative viability ([4]; first compound 0.1581 µM) was 0.0979. For the same compound, the relative viability ([4]; first compound 0.5 µM) was 0.12, the relative viability ([6]; first compound 0.005 µM) was 0.647 and the relative viability ([6]; first compound 0.01581 µM) was 0.882. For the same compound, the relative viability ([6]; first compound 0.05 µM) was 0.73, the relative viability ([6]; first compound 0.1581 µM) was 0.527 and the relative viability ([6]; first compound 0.5 µM) was 0.401. For the same compound, the relative viability ([7]; first compound 0.005 µM) was 0.343, the relative viability ([7]; first compound 0.01581 µM) was 0.246 and the relative viability ([7]; first compound 0.05 µM) was 0.218. The relative viability ([7]; first compound 0.1581 µM) was 0.184, the relative viability ([7]; first compound 0.5 µM) was 0.184 and the relative viability ([10]; first compound 0.005 µM) was 0.108. For the same compound, the relative viability ([10]; first compound 0.01581 µM) was 0.121, the relative viability ([10]; first compound 0.05 µM) was 0.103 and the relative viability ([10]; first compound 0.1581 µM) was 0.124. The relative viability ([10]; first compound 0.5 µM) was 0.13, the relative viability ([9]; first compound 0.005 µM) was 0.611 and the relative viability ([9]; first compound 0.01581 µM) was 0.405. It also gave a relative viability ([9]; first compound 0.05 µM) of 0.248, a relative viability ([9]; first compound 0.1581 µM) of 0.208 and a relative viability ([9]; first compound 0.5 µM) of 0.221.
